Results from patent US9187471B2, “Pyrido [4,3-b] indole and pyrido [3,4-b] indole derivatives and methods of use” (Medivation Technologies, Inc., priority 2010, dated 2015).

How the values were obtained:
[1] = biological target: T1, human recombinant histamine H1 receptor (Homo sapiens, UniProt P35367); assay: Histamine H1 radioligand binding ([3H]Pyrilamine); conditions: read-out: Histamine H1 Binding (1 μM), percent inhibition of specific binding; compound at 1 μM; 1.2 nM [3H]Pyrilamine
T1 construct: expressed in transfected cells; host or cells: CHO-K1
T1 sequence (P35367 whole entry): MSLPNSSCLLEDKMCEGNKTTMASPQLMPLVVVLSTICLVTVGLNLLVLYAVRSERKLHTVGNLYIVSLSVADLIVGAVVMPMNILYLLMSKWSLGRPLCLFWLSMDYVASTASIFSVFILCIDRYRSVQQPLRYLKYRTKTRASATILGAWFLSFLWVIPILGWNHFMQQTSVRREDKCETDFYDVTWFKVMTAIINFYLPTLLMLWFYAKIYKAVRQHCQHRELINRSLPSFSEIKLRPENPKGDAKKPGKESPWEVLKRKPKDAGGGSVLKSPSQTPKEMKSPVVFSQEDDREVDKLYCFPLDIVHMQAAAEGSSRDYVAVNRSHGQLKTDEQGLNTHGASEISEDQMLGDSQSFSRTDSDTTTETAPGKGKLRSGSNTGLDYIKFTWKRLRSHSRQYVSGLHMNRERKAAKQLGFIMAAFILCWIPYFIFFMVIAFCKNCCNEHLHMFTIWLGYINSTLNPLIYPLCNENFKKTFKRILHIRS
Outline: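 Results expressed as percent inhibition of specific [3H]pyrilamine binding, counted on filters after washing. Receptor source: CHO-K1 cells expressing recombinant human H1, in modified Tris-HCl buffer (50 mM, pH 7.4; 2 mM MgCl2, 100 mM NaCl, 250 mM sucrose). 1 μM pyrilamine defined non-specific binding.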

[2] = biological target: T2, rat adrenergic α1A receptor (Rattus norvegicus, UniProt P43140); assay: Adrenergic α1A radioligand binding ([3H]Prazosin); conditions: read-out: Adrenergic (0.1 μM) a1A, percent inhibition of specific binding; compound at 0.1 μM; 0.25 nM [3H]Prazosin
T2 construct: rat adrenergic α1A receptor obtained from Wistar Rat submaxillary glands; from tissue; host or cells: Wistar rat submaxillary glands
T2 sequence (P43140 1-466): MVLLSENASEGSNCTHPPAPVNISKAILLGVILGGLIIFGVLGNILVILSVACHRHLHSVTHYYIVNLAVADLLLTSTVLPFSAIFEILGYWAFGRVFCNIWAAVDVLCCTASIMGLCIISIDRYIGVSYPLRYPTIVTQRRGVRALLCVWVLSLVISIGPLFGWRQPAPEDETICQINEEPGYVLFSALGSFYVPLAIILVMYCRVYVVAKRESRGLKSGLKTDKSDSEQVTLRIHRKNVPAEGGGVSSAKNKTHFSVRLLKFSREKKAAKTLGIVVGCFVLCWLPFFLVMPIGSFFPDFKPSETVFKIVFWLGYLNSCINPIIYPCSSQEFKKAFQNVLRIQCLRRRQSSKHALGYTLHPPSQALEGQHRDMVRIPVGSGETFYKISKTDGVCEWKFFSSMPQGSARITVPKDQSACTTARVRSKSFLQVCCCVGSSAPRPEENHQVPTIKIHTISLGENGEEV
Outline: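 Wistar rat submaxillary gland receptor in 50 mM Tris-HCl pH 7.4 with 0.5 mM EDTA, incubated with compound and 0.25 nM [3H]Prazosin for 60 min at 25 °C.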

[3] = biological target: T3, human recombinant adrenergic α2C receptor (Homo sapiens, UniProt P18825); assay: Adrenergic α2C radioligand binding ([3H]MK-912); conditions: read-out: Adrenergic (0.1 μM) a2C, percent inhibition of specific binding; compound at 0.1 μM; 1 nM [3H]MK-912
T3 construct: expressed in transfected cells; host or cells: insect Sf9 cells
T3 sequence (P18825 1-462): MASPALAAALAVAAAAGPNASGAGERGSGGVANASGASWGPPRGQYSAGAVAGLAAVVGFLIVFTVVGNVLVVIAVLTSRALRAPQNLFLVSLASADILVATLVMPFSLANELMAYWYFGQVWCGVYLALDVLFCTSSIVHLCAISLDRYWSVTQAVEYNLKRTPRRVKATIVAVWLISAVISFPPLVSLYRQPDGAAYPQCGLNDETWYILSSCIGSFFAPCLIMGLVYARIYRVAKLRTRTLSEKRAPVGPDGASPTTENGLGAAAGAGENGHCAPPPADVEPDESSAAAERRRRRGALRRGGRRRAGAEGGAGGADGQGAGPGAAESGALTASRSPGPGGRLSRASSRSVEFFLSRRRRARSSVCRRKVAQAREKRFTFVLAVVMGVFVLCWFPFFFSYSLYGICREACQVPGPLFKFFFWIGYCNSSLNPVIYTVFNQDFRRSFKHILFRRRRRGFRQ
Outline: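 Membranes from Sf9 cells expressing the human receptor, in 50 mM Tris-HCl pH 7.4 with 12.5 mM MgCl2 and 2 mM EDTA, incubated with compound and 1 nM [3H]MK-912 for 60 min at 25 °C. Non-specific binding defined with 10 μM WB-4101. Filter-bound radioactivity counted; percent inhibition of specific binding reported.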

[4] = biological target: T4, human recombinant serotonin (5-Hydroxytryptamine) 5-HT5A receptor (Homo sapiens, UniProt P47898); assay: Serotonin 5-HT5A radioligand binding ([3H]LSD); conditions: compound at 0.1 μM; read-out: Inhibition of ligand binding, Serotonin 5-HT5A (percent inhibition of specific binding)
T4 construct: expressed in transfected cells; host or cells: CHO-K1
T4 sequence (P47898 whole entry): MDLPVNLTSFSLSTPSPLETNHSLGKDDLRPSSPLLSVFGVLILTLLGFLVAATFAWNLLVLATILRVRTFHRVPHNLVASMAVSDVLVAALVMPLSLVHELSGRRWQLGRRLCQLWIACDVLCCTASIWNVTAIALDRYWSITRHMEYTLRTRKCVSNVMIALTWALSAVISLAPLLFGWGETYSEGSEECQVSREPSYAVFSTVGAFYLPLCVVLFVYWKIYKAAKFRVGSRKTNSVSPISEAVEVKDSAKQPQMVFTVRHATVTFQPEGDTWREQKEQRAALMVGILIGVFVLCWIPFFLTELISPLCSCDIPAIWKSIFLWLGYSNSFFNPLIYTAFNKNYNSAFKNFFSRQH
Protocol: Compounds of the invention were incubated with 1.7 nM [^3H]Lysergic acid diethylamide (LSD) for 60 min at 37° C. […] Receptor proteins were filtered and washed, the filters were counted to determine [^3H]LSD specifically bound.

[5] = biological target: T5, human recombinant serotonin (5-Hydroxytryptamine) 5-HT6 receptor (Homo sapiens, UniProt P50406); assay: Serotonin 5-HT6 radioligand binding ([3H]LSD); conditions: compound at 0.1 μM; read-out: Inhibition of ligand binding, Serotonin 5-HT6 (percent inhibition of specific binding)
T5 construct: expressed in transfected cells; host or cells: HeLa
T5 sequence (P50406 whole entry): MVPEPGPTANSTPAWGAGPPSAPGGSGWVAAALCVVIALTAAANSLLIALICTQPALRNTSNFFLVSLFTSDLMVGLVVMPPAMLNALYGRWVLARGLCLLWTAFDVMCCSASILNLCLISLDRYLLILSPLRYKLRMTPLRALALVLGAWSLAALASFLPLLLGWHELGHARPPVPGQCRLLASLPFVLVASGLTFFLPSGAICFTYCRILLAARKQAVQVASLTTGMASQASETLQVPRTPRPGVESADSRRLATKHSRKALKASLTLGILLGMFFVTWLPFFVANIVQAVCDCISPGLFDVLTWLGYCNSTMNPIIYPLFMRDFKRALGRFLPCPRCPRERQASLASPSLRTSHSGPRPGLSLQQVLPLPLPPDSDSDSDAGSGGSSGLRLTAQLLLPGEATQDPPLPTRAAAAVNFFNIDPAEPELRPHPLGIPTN
From the text: Receptor proteins were filtered and washed, the filters were then counted to determine [3H]LSD specifically bound.

`CNC(=O)c1ccc(-c2cccc(-n3c4c(c5cc(C)ccc53)CN(C)CC4)c2)cn1` [Compound No. 75, 5-(3-(2,8-dimethyl-3,4-dihydro-1H-pyrido[4,3-b]indol-5(2H)-yl)phenyl)-N-methylpicolinamide] gave an inhibition at 1 µM [1] of 19%, an inhibition at 0.1 µM [2] of 21% and an inhibition at 0.1 µM [3] of -3%. For the same molecule, the inhibition at 0.1 µM [4] was 29% and the inhibition at 0.1 µM [5] was 4%.
Work on `Cc1csc(-c2ccc(-n3c4c(c5cc(C)ccc53)CN(C)CC4)nc2)c1` [Compound No. 144, 2,8-dimethyl-5-(5-(4-methylthiophen-2-yl)pyridin-2-yl)-2,3,4,5-tetrahydro-1H-pyrido[4,3-b]indole] yielded an inhibition at 1 µM [1] of 11%, an inhibition at 0.1 µM [2] of 27% and an inhibition at 0.1 µM [3] of 49%. The inhibition at 0.1 µM [4] was 38% and the inhibition at 0.1 µM [5] was 13%.
Molecule `Cc1ccc2c(c1)c1c(n2-c2cccc(-c3sccc3C)c2)CCN(C)C1` [Compound 43, 2,8-dimethyl-5-(3-(3-methylthiophen-2-yl)phenyl)-2,3,4,5-tetrahydro-1H-pyrido[4,3-b]indole] has an inhibition at 1 µM [1] of 26%, an inhibition at 0.1 µM [2] of 13% and an inhibition at 0.1 µM [3] of -16%. The inhibition at 0.1 µM [4] was 39% and the inhibition at 0.1 µM [5] was 28%.
Molecule `Cc1ccc2c(c1)c1c(n2-c2cscc2-c2cnn(C)c2)CCN(C)C1` [Compound 30] has an inhibition at 1 µM [1] of 23%, an inhibition at 0.1 µM [2] of 62% and an inhibition at 0.1 µM [3] of 10%. The inhibition at 0.1 µM [4] was 77% and the inhibition at 0.1 µM [5] was 33%.
With `CNC(=O)c1cccc(-c2cscc2-n2c3c(c4cc(C)ccc42)CN(C)CC3)c1` [Compound No. 154] the inhibition at 1 µM [1] was 20%, the inhibition at 0.1 µM [2] was 28% and the inhibition at 0.1 µM [3] was 3%. For the same molecule, the inhibition at 0.1 µM [4] was 85% and the inhibition at 0.1 µM [5] was 7%.
`Cc1ccc2c(c1)c1c(n2-c2cscc2-c2ccc(C)s2)CCN(C)C1` [Compound No. 79] showed an inhibition at 1 µM [1] of 61%, an inhibition at 0.1 µM [2] of 79% and an inhibition at 0.1 µM [3] of 77%. The inhibition at 0.1 µM [4] was 93% and the inhibition at 0.1 µM [5] was 50%.
With `Cc1ccc2c(c1)c1c(n2-c2cccc(-c3ccc(C)s3)c2)CCN(C)C1` [Compound No. 64, 2,8-dimethyl-5-(3-(5-methylthiophen-2-yl)phenyl)-2,3,4,5-tetrahydro-1H-pyrido[4,3-b]indole] the inhibition at 1 µM [1] was 23%, the inhibition at 0.1 µM [2] was -8% and the inhibition at 0.1 µM [3] was 12%. It also gave an inhibition at 0.1 µM [4] of 30% and an inhibition at 0.1 µM [5] of -3%.
Work on `Cc1ccc2c(c1)c1c(n2-c2cccc(-c3ccc(C)nc3)c2)CCN(C)C1` [Compound 60, 2,8-dimethyl-5-(3-(6-methylpyridin-3-yl)phenyl)-2,3,4,5-tetrahydro-1H-pyrido[4,3-b]indole] yielded an inhibition at 1 µM [1] of 32%, an inhibition at 0.1 µM [2] of -2% and an inhibition at 0.1 µM [3] of 21%. It also gave an inhibition at 0.1 µM [4] of 62% and an inhibition at 0.1 µM [5] of 3%.
Molecule `Cc1ccc2c(c1)c1c(n2-c2ccc(-c3ccc(F)cc3)cn2)CCN(C)C1` [Compound No. 140, 5-(5-(4-fluorophenyl)pyridin-2-yl)-2,8-dimethyl-2,3,4,5-tetrahydro-1H-pyrido[4,3-b]indole] has an inhibition at 1 µM [1] of 10%, an inhibition at 0.1 µM [2] of 31% and an inhibition at 0.1 µM [3] of 53%. The inhibition at 0.1 µM [4] was 52% and the inhibition at 0.1 µM [5] was 41%.
Work on `CNC(=O)c1ccc(-c2ccccc2-n2c3c(c4cc(C)ccc42)CN(C)CC3)cn1` [Compound No. 71, 5-(2-(2,8-dimethyl-3,4-dihydro-1H-pyrido[4,3-b]indol-5(2H)-yl)phenyl)-N-methylpicolinamide] yielded an inhibition at 1 µM [1] of 18%, an inhibition at 0.1 µM [2] of 65% and an inhibition at 0.1 µM [3] of -1%. For the same molecule, the inhibition at 0.1 µM [4] was 29% and the inhibition at 0.1 µM [5] was -7%.
`Cc1ccc2c(c1)c1c(n2-c2ccc3nc(C)ccc3c2)CCN(C)C1` [Compound No. 157, 2,8-dimethyl-5-(2-methyl-quinolin-6-yl)-2,3,4,5-tetrahydro-1H-pyrido[4,3-b]indole] was tested, and the inhibition at 1 µM [1] was -17%, the inhibition at 0.1 µM [2] was 7% and the inhibition at 0.1 µM [3] was -1%. It also gave an inhibition at 0.1 µM [4] of 20% and an inhibition at 0.1 µM [5] of 22%.
For `Cc1ccc2c(c1)c1c(n2-c2ccccc2-c2ccnn2C)CCN(C)C1` [Compound 32], the inhibition at 1 µM [1] was 22%, the inhibition at 0.1 µM [2] was 27% and the inhibition at 0.1 µM [3] was 20%. For the same molecule, the inhibition at 0.1 µM [4] was 26% and the inhibition at 0.1 µM [5] was 5%.
In the case of `Cc1cc(C)c2c(c1)c1c(n2-c2cccc(-c3ccncc3)c2)CCN(C)C1` [Compound 57, 2,6,8-trimethyl-5-(3-(pyridin-4-yl)phenyl)-2,3,4,5-tetrahydro-1H-pyrido[4,3-b]indole], the inhibition at 1 µM [1] was 45%, the inhibition at 0.1 µM [2] was 3% and the inhibition at 0.1 µM [3] was 3%. For the same molecule, the inhibition at 0.1 µM [4] was 26% and the inhibition at 0.1 µM [5] was 15%.
Work on `Cc1ccc2c(c1)c1c(n2-c2ccc(-c3cccnc3)cn2)CCN(C)C1` [Compound No. 133, 5-(3,3′-bipyridin-6-yl)-2,8-dimethyl-2,3,4,5-tetrahydro-1H-pyrido[4,3-b]indole] yielded an inhibition at 1 µM [1] of 6%, an inhibition at 0.1 µM [2] of 21% and an inhibition at 0.1 µM [3] of 0%. For the same molecule, the inhibition at 0.1 µM [4] was 6% and the inhibition at 0.1 µM [5] was 10%.
`Cc1ccc2c(c1)c1c(n2-c2cscc2-c2ccc(F)nc2)CCN(C)C1` [Compound 35] gave an inhibition at 1 µM [1] of 3%, an inhibition at 0.1 µM [2] of 78% and an inhibition at 0.1 µM [3] of 47%. The inhibition at 0.1 µM [4] was 66% and the inhibition at 0.1 µM [5] was 21%.
Molecule `CNC(=O)c1cccc(-c2ccc(-n3c4c(c5cc(C)ccc53)CN(C)CC4)nc2)c1` [Compound No. 143, 3-(6-(2,8-dimethyl-3,4-dihydro-1H-pyrido[4,3-b]indol-5(2H)-yl)pyridin-3-yl)-N-methylbenzamide] has an inhibition at 1 µM [1] of 8%, an inhibition at 0.1 µM [2] of 32% and an inhibition at 0.1 µM [3] of 8%. For the same molecule, the inhibition at 0.1 µM [4] was 17% and the inhibition at 0.1 µM [5] was -8%.
In the case of `Cc1csc(-c2ccccc2-n2c3c(c4cc(C)ccc42)CN(C)CC3)c1` [Compound 36], the inhibition at 1 µM [1] was 16%, the inhibition at 0.1 µM [2] was -6% and the inhibition at 0.1 µM [3] was 67%. For the same molecule, the inhibition at 0.1 µM [4] was 50% and the inhibition at 0.1 µM [5] was 13%.
For `Cc1ccc2c(c1)c1c(n2-c2ccc(-c3sccc3C)cn2)CCN(C)C1` [Compound No. 148, 2,8-dimethyl-5-(5-(3-methylthiophen-2-yl)pyridin-2-yl)-2,3,4,5-tetrahydro-1H-pyrido[4,3-b]indole], the inhibition at 1 µM [1] was 5%, the inhibition at 0.1 µM [2] was 20% and the inhibition at 0.1 µM [3] was 4%. It also gave an inhibition at 0.1 µM [4] of 50% and an inhibition at 0.1 µM [5] of 5%.
Molecule `Cc1ccc2c(c1)c1c(n2-c2cscc2-c2sccc2C)CCN(C)C1` [Compound 39] has an inhibition at 1 µM [1] of 58%, an inhibition at 0.1 µM [2] of 31% and an inhibition at 0.1 µM [3] of 50%. The inhibition at 0.1 µM [4] was 83% and the inhibition at 0.1 µM [5] was 65%.
With `Cc1ccc2c(c1)c1c(n2-c2ccccc2-c2ccc3c(ccn3C)c2)CCN(C)C1` [Compound No. 85, 2,8-dimethyl-5-(2-(1-methyl-1H-indol-5-yl)phenyl)-2,3,4,5-tetrahydro-1H-pyrido[4,3-b]indole] the inhibition at 1 µM [1] was 8%, the inhibition at 0.1 µM [2] was 24% and the inhibition at 0.1 µM [3] was 46%. For the same molecule, the inhibition at 0.1 µM [4] was 50% and the inhibition at 0.1 µM [5] was 49%.
